Results taken from ChEMBL document CHEMBL5030551, “Identification of Plasmodium falciparum falcilysin inhibitors by a virtual screen” (Bioorg Med Chem Lett, 2021).

Key:
[1] = Inhibition of recombinant Plasmodium falciparum FLN expressed in Escherichia coli BL21 using Dabcyl-HKRHSFRMRG-EDANS as substrate incubated for 10 mins by fluorecence assay
Plasmodium falciparum = assay: Antiplasmodial activity against Plasmodium falciparum 3D7 infected in human red blood cells assessed as reduction in parasitemia measured after 70 to 80 hrs by SYBR Green dye based assay; assay type: functional, organism-based, RBC; conditions: 3D7, Erythrocyte

| IC50 [1] | EC50 (Plasmodium falciparum) | Structure (SMILES) |
| --- | --- | --- |
| > 25 µM | 3.8 µM | CN1CCC2(CC1)Oc1ccccc1[C@H]1CC(c3cccc4ccccc34)=NN12 |
| 12 µM | 1.7 µM | O=C1NC(=O)C(c2ccccc2)(c2ccccc2)[C@@H]2C[C@@H]3c4[nH]c5ccccc5c4CCN3C[C@H]12 |
| > 25 µM | > 25 µM | O=c1/c(=C/c2ccc(/C=c3\sc4nc5ccccc5n4c3=O)cc2)sc2nc3ccccc3n12 |
| > 25 µM | 3 µM | Cc1c(C(=O)NCCc2nc3ccccc3[nH]2)oc2c1ccc1ccccc12 |
| > 25 µM | > 25 µM | Cc1ccc(-c2nc3cccnc3n2CCNC(=O)Nc2ccccc2F)cc1 |
| 12 µM | > 25 µM | O=C(Cn1cc(-c2nnc(-c3ccccc3)o2)c2ccccc21)Nc1ccccc1 |
| > 25 µM | > 25 µM | O=C(NN1C(=O)c2cccc3cccc(c23)C1=O)NN1C(=O)c2cccc3cccc(c23)C1=O |
| > 25 µM | > 25 µM | CC1=C(C(=O)Nc2ccccc2C)[C@H](c2ccc3c(c2)OCO3)n2ncnc2N1 |
| > 25 µM | > 25 µM | C[C@@H](c1cc(=O)[nH]c(N[C@H]2CCc3ccccc32)n1)n1ncc2ccccc2c1=O |
| > 25 µM | > 25 µM | O=c1cc(CN2CCc3n[nH]c(-c4cccc5ccccc45)c3C2)[nH]c(=O)[nH]1 |
| 11 µM | > 25 µM | CC(=O)n1cc([C@H]2CC(=O)OC3=C2C(=O)c2ccccc23)c2ccccc21 |
| > 25 µM | 5.3 µM | Cc1cccc(-c2nc3c4ccccc4nc(NCCc4ccccc4)n3n2)c1 |
| 19 µM | 12 µM | O=C(Nc1ccc(Cl)cc1)Nc1nnc2nc(CC(=O)c3ccc4ccccc4c3)c(=O)[nH]n12 |
| > 25 µM | > 25 µM | O=C1c2ccc3c(c2CC12Cc1ccc4c(c1C2=O)CCCC4)CCCC3 (stereo not given) |
| > 25 µM | 5.1 µM | O=C1/C(=c2/c3ccccc3n3c(=O)c4ccccc4nc23)Nc2ccccc21 |
| > 25 µM | 9.1 µM | C[C@H]1CCc2[nH]c3ccc(C(=O)NC[C@H]4COc5ccccc5O4)cc3c2C1 |
| > 25 µM | 5.5 µM | Cc1cc2cc(CCNC(=O)c3ccc4ccccc4c3)c(=O)[nH]c2cc1C |
| 21 µM | 4.4 µM | c1cnc2c(c1)CN(c1nc(-c3c[nH]c4ccccc34)nc3c1CNC3)CC2 |
| > 25 µM | > 25 µM | O=C(c1ccc2c3c(cccc13)CC2)[C@H]1CCCN(Cc2cc(=O)[nH]c(=O)[nH]2)C1 |
| > 25 µM | > 25 µM | C[C@@H]1Cc2cc(-c3cc(CC(=O)N=c4[nH]c5ccccc5[nH]4)no3)ccc2O1 |
| > 25 µM | 14.9 µM | O=C(Nc1nc2ccccc2[nH]1)c1cc(-c2ccccn2)nc2ccccc12 |
| > 25 µM | > 25 µM | Cc1ccc(N2C[C@@H](c3nc(-c4ccc5oc(C)nc5c4)no3)CC2=O)cc1 |
| > 25 µM | > 25 µM | Cc1ccc(-c2noc(CSc3nc(O)cc(-c4ccccc4)n3)n2)cc1C |
| > 25 µM | > 25 µM | O=C(c1cc(-c2cccc3cccnc23)cc(-n2cnnn2)c1)N1CCCCC1 |
| > 25 µM | > 25 µM | Cc1cccc(NC(=O)Cn2c(C)cc(=O)n3nc(-c4cccc(C)c4)nc23)c1 |
| > 25 µM | > 25 µM | Cc1nn(-c2cccc(C(=O)N3CCN(C)C(=O)C3)c2)c(=O)c2ccccc12 |
| > 25 µM | 3.8 µM | Cn1nc(C(=O)NCc2ccccc2)c2c1CCN(Cc1cc3ccccc3[nH]1)C2 |
| 1.76 µM | > 25 µM | Nc1c(C(=O)Nc2ccc3c(c2)C(=O)c2ccccc2C3=O)ccc2c1C(=O)c1ccccc1C2=O |
| > 25 µM | > 25 µM | Cc1nc2ccccc2c(=O)n1Cc1noc(-c2cc3ccccc3oc2=O)n1 |
| > 25 µM | > 25 µM | O=C1Oc2ccccc2C(=O)Oc2ccccc2C(=O)Oc2ccccc2C(=O)Oc2ccccc21 |
